Measurements: ChEMBL document CHEMBL1667842, “Benzyl benzoates: New phlorizin analogs as mushroom tyrosinase inhibitors” (Bioorg Med Chem, 2011)
Calls of active or inactive are those of the source. No cut-off for these calls is given here.

Columns and labels:
Tyrosinase [1] = molecular target: T1, Tyrosinase (Agaricus bisporus, UniProt O42713)
T1 sequence (O42713 whole entry): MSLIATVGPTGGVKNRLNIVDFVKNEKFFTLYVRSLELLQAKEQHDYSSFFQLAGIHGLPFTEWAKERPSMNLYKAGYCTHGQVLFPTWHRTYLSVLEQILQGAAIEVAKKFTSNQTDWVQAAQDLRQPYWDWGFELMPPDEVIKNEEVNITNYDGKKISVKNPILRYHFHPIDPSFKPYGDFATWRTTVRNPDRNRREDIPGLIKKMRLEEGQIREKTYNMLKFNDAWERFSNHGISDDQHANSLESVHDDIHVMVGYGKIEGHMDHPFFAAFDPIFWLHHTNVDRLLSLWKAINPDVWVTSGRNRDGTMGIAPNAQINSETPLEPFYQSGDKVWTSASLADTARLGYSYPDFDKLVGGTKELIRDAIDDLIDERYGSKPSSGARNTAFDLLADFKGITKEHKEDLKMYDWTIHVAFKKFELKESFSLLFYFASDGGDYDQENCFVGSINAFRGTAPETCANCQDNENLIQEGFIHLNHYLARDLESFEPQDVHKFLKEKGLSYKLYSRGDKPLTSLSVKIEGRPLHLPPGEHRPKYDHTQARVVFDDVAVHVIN
Description: Inhibition of mushroom tyrosinase preincubated for 20 mins

[2] = molecular target: T2, Tyrosinase (Agaricus bisporus) (UniProt O42713); assay: (§1) Competitive inhibition of mushroom tyrosinase by Lineweaver-Burk plot analysis
T2 sequence (whole entry): T1 sequence (O42713 whole entry)

Tyrosinase [3] = molecular target: T1, Tyrosinase; assay: as §1

IC50 (Tyrosinase [1]) | Activity [2] | Ki (Tyrosinase [3]) | SMILES
11.5 µM |  |  | O=C(OCc1cccc(O)c1)c1cc(O)c(O)c(O)c1
19.9 µM |  |  | O=C(OCc1ccccc1O)c1c(O)cc(O)cc1O
19.9 µM |  |  | O=C(OCc1ccccc1O)c1cc(O)cc(O)c1
66.2 µM |  |  | O=C(OCc1ccccc1O)c1ccc(O)cc1O
> 100 µM |  |  | O=C(OCc1ccccc1O)c1cc(O)ccc1O
> 100 µM |  |  | O=C(OCc1ccccc1O)c1cc(O)c(O)c(O)c1
8 µM | Active |  | O=C(OCc1ccc(O)cc1)c1c(O)cc(O)cc1O [4-HYDROXYBENZYL 2,4,6-DIHYDROXYBENZOATE]

Further lines, the compound ahead of its results:

SMILES | IC50 (Tyrosinase [1]) | Activity [2] | Ki (Tyrosinase [3])
O=C(OCc1cccc(O)c1)c1ccc(O)cc1O | 6.23 µM | Active | 
O=C(OCc1cccc(O)c1)c1cc(O)cc(O)c1 | 6.11 µM | Active | 
O=C(OCc1cccc(O)c1)c1cc(O)ccc1O [3-HYDROXYBENZYL 2,5-DIHYDROXYBENZOATE] | 24.4 µM |  | 
O=C(OCc1ccc(O)cc1)c1cc(O)cc(O)c1 [4-HYDROXYBENZYL 3,5-DIHYDROXYBENZOATE] | 5.84 µM | Active | 
O=C(OCc1ccc(O)cc1)c1cc(O)ccc1O [4-HYDROXYBENZYL 2,5-DIHYDROXYBENZOATE] | 12.3 µM |  | 
O=C(OCc1ccc(O)cc1)c1ccc(O)cc1O | 4.69 µM |  | 1110 nM
O=C(OCc1ccc(O)cc1)c1cc(O)c(O)c(O)c1 [4-HYDROXYBENZYL GALLATE] | 25.7 µM |  | 
